In general, Hill coefficient refers to a measure of the steepness of the concentration-response curve.

Positions of bridges follow the written chain, without caps; N, C: chain ends. Residues, ends and D or L forms follow the SMILES beside them.

The text below walks through data of PMC10380377 (International Journal of Molecular Sciences, 2023).

One data set deals with Kv10.1 potassium channel. It counts as cell-based, human.
Data set [1] deals with T1, human Kv11.1 (Homo sapiens, UniProt Q12809). Put plainly: in vitro. The note with it: pH 7.2.
T1 sequence (Q12809 whole entry): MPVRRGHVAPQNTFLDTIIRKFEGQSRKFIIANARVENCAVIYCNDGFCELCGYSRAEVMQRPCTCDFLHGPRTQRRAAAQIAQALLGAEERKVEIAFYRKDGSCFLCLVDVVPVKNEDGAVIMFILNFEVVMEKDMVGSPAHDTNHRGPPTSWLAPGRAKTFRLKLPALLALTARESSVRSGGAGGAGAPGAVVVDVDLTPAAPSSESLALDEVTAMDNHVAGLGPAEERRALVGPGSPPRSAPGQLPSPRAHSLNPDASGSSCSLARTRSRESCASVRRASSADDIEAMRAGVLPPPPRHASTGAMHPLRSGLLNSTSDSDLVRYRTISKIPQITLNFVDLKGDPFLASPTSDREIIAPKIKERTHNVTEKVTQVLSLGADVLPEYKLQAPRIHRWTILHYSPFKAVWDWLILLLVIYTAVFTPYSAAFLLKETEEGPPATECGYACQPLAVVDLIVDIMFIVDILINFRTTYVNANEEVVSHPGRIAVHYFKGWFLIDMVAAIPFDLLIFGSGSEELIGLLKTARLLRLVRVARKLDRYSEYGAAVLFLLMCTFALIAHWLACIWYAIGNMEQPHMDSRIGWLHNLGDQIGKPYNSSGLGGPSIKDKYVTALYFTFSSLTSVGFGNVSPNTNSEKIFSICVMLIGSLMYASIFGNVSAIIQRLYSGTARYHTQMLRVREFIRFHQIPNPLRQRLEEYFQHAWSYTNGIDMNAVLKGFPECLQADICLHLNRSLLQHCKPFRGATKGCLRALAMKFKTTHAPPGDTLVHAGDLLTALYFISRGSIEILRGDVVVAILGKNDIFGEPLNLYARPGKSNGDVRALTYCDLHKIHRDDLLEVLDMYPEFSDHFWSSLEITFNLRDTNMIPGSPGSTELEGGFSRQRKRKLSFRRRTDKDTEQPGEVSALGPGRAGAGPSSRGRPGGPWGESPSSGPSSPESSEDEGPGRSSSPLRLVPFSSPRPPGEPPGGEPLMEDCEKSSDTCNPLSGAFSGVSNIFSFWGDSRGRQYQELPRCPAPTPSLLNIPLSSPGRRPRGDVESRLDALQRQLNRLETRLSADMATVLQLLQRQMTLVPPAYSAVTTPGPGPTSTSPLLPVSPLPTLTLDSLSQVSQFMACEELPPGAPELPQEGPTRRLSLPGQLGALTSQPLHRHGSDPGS
Another data set deals with T2, human Kv10.1 (Homo sapiens, UniProt O95259).
T2 construct: expressed in transfected cells; host or cells: Xenopus laevis oocytes injected with cRNA (pSGEM clone, T7 transcription)
T2 sequence (O95259 1-989): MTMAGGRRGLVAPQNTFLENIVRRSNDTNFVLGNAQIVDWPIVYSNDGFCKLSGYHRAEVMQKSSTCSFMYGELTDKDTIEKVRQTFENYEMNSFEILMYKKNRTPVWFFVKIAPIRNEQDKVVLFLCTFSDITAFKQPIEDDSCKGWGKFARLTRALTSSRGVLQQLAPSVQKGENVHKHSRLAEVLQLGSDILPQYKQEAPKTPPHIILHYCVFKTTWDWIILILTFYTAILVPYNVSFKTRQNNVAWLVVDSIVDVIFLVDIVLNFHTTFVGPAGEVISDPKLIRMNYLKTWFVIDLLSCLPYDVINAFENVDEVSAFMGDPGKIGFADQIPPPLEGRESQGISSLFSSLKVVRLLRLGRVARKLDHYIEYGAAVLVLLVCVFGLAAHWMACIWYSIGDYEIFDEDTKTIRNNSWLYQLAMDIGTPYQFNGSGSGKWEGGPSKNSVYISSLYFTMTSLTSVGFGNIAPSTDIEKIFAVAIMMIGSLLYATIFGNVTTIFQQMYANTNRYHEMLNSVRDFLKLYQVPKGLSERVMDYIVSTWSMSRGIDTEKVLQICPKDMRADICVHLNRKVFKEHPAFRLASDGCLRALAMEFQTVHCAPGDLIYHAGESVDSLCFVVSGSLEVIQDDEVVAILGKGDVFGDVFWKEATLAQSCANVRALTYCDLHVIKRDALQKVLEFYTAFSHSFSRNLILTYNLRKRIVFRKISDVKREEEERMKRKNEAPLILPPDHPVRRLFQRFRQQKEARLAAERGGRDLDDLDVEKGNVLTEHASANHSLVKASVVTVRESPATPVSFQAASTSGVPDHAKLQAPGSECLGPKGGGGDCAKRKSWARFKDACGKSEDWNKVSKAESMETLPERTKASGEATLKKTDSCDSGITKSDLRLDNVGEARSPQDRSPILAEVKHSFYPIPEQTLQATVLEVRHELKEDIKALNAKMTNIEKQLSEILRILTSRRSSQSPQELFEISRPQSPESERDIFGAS
Put plainly: cell-based.

A further data set has as its target T3, human Kv1.6 (Homo sapiens, UniProt P17658).
T3 construct: expressed in transfected cells; host or cells: Xenopus laevis oocytes injected with cRNA (pSGEM clone, T7 transcription)
Put plainly: cell-based. The format is cell-based.

Data set [2] has as its target T1, human Kv11.1.

T3 sequence (P17658 whole entry): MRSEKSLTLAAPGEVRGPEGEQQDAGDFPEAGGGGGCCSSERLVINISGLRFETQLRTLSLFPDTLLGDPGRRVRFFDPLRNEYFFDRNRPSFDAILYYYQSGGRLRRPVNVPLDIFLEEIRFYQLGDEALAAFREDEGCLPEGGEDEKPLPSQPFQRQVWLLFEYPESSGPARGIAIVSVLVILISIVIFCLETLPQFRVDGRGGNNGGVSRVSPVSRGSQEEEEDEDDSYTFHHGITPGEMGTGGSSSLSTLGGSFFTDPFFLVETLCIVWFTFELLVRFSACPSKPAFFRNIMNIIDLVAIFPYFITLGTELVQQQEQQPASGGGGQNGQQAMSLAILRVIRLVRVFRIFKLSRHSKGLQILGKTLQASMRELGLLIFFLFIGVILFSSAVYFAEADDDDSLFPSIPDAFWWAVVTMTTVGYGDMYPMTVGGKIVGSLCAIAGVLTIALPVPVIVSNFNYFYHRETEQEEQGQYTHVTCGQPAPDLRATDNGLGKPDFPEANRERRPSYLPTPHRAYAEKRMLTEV

Turning to `CC[C@H](C)[C@H](NC(=O)[C@@H]1CSSC[C@@H]2NC(=O)[C@H](C(C)C)NC(=O)[C@H](CC(C)C)NC(=O)CNC(=O)[C@H](CC(C)C)NC(=O)CNC(=O)[C@@H]3CCCN3C(=O)[C@H](CC(C)C)NC(=O)CNC(=O)[C@@H]3CSSC[C@H](NC(=O)[C@H](C)NC(=O)CNC(=O)[C@H](CCCNC(=N)N)NC(=O)[C@H](CSSC[C@H](NC(=O)CN)C(=O)NCC(=O)N[C@@H](C(C)C)C(=O)N[C@@H](CC(=O)O)C(=O)NCC(=O)N[C@@H](CCC(N)=O)C(=O)N[C@@H](Cc4ccccc4)C(=O)N3)NC2=O)C(=O)N[C@@H](Cc2ccccc2)C(=O)N[C@@H](CC(C)C)C(=O)N[C@@H](C(C)C)C(=O)N1)C(=O)N[C@@H](Cc1ccc(O)cc1)C(=O)N[C@H](C(=O)N1CCC[C@H]1C(=O)O)[C@@H](C)CC` [κO-SrVIA] (H-GCGVDGQFCGLPGLGLVCCRGACFLVCIYIP-OH; disulfide 2-19, 9-23, 18-27), the “inhibitory activity on the Kv10.1 channel” value in the data set with Kv10.1 potassium channel was “the only fraction that had inhibitory activity on the Kv10.1 channel”. In addition, the inhibition at 0.4 µM on human Kv11.1 [1] and on human Kv10.1 (read-out: inhibitory activity) was 10% in each case. For the same compound, the Hill coefficient on human Kv10.1 amounted to 1.86 ± 0.25; on human Kv1.6, 3.35 ± 0.44; on human Kv11.1 [2] it was 2.85 ± 0.46. For the same compound, the “effect on Kv1.6” value at human Kv1.6 is given as “no effect”. For the same compound, at human Kv1.6, the inhibition at 4 µM is less than 50%.
